For six compounds, TGI and GI50 results are on record in PubChem BioAssay (NCI).

Test in all cases: DTP human tumour cell line panel, 48 h
The subject of assay [1] is XF 498 CNS.
For assay [2], the system named is DLD-1 colon.
Assay [3] relates to DMS 273 small cell lung.
In assay [4] the test system is SNB-78 CNS.
The subject of assay [5] is HCC-2998 colon.
Assay [6] relates to HOP-18 NSCLC.
Assay [7] relates to CAKI-1 renal.
Assay [8] deals with ACHN renal.
Assay [9] concerns KM20L2 colon.
In assay [10] the test system is DMS 114 small cell lung.
The test system of assay [11] is M19-MEL melanoma.
In assay [12] the test system is A549 NSCLC.
Assay [13] has as its system SN12K1 renal.
For assay [14], the system named is MOLT-4 leukemia.
The subject of assay [15] is LXFL 529 NSCLC.

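1) Cells in 96-well plates. 2) Compound, 48 h, 5 concentrations. 3) Linear interpolation between surrounding doses. 4) Unreached endpoint = highest concentration. GI50 marks 50% less growth. TGI: concentration producing complete growth inhibition.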

What is called TGI is the concentration at which net growth stops. Read a high TGI as less potent growth arrest. In the case of `COc1ccccc1NC(=O)CSC(N)=O`, the total growth inhibition concentration (TGI) in [1] is 83.6 µM; in assay [2], more than 100 µM; in assay [3] it was more than 100 µM; in [4] it was more than 100 µM; in [5] it was more than 100 µM; in assay [6] it was more than 100 µM. Besides, the TGI in [7], in assay [8], in assay [9], in assay [10], in assay [11] and in assay [12] was more than 100 µM in each case.
Take `O=P1(N(CCCl)CCCl)NCCCO1` (configuration not stated): the total growth inhibition concentration (TGI) is 180 µM in [1]; more than 250 µM in assay [2]; more than 250 µM in assay [13]; more than 250 µM in assay [3]; more than 250 µM in [14]; more than 216 µM in assay [4]. Also, the total growth inhibition concentration (TGI) is more than 205 µM in assay [5]; 150 µM in assay [6]; more than 191 µM in assay [7]; more than 250 µM in [8]; more than 250 µM in assay [9]; more than 250 µM in assay [10]. The TGI in assay [11] is more than 250 µM; in assay [15], more than 250 µM; in assay [12] it was more than 239 µM.
A word on the GI50: it is the concentration giving 50% growth inhibition. As to `Cc1cccc(=O)c([O-])c1.Cc1cccc(=O)c([O-])c1.Cc1cccc(=O)c([O-])c1.Cc1cccc(=O)c([O-])c1.[Th+4]`, the GI50 in assay [1] is 23.3 µM. Further, the TGI in [1] is 64.9 µM; in assay [2], more than 100 µM; in assay [3], 33 µM; in [14], more than 27 µM; in assay [4] it was more than 100 µM; in [5] it was more than 100 µM. The TGI in [6] is more than 100 µM; in assay [7], 86.6 µM; in [8], more than 100 µM; in assay [9] it was more than 100 µM; in [10], 15.6 µM; in [11], 61.8 µM. Further, the concentration for total growth inhibition (TGI) in [15] and in assay [12] was more than 100 µM throughout.
With `CC(C)C(=O)/C=C/c1ccccc1`, the TGI in assay [1], in [2], in assay [3], in assay [14], in [4] and in assay [5] was more than 100 µM in each case. For the same compound, the total growth inhibition concentration (TGI) in assay [6], in assay [8], in assay [9], in [11], in assay [15] and in [12] was more than 100 µM throughout.
Regarding `O=C1C(Cl)C(c2cccc(O)c2)N1n1cnc2ccccc2c1=O` (configuration not stated), the TGI in assay [1], in [2], in [3], in assay [14], in [4] and in [5] was more than 100 µM in each case. Also, the TGI in [6], in [7], in assay [8], in assay [9], in assay [10] and in assay [11] was more than 100 µM in each case. Further, the TGI in assay [15] and in assay [12] was more than 100 µM throughout.
In the case of `CC(=O)CCCCCCCCCCCC[C@@H]1CC[C@H](C)[C@H](O)N1`, the total growth inhibition concentration (TGI) in assay [1], in assay [2], in assay [3], in [14], in assay [4] and in assay [5] was more than 100 µM in each case. Besides, the TGI in [6], in assay [7], in assay [8], in [9], in [10] and in assay [11] was more than 100 µM each time. Also, the TGI in assay [15] and in assay [12] was more than 100 µM each time.
